According to the NIST ThermoML archive (doi:10.1021/je200508x):

Experiment: molar heat capacity at constant pressure
Conditions: 101.33 kPa, Crystal, Vacuum adiabatic calorimetry

C=C(C)C(=O)[O][Sb]([O]C(=O)C(=C)C)([c]1ccccc1)([c]1ccccc1)[c]1ccccc1 [triphenyl-.lambda.5-stibanediyl bis(2-methylacrylate)]
Conditions	molar heat capacity at constant pressure [J/K/mol]
5 K	2.01
5.69 K	2.9
6.38 K	4.02
7.1 K	5.41
7.71 K	6.68
8.27 K	7.96
8.8 K	9.25
9.02 K	9.78
9.38 K	10.7
9.91 K	12
10 K	12.3
10.45 K	13.4
10.84 K	14.3
11.3 K	15.5
11.73 K	16.5
12.1 K	17.4
13.05 K	19.9
13.67 K	21.6
14.66 K	24.5
15 K	25.4
15.64 K	27.4
16.62 K	30.16
17.59 K	33.15
18.52 K	36.15
19.07 K	37.69
19.58 K	39.2
20 K	40.48
21.68 K	45.73
24.61 K	55.52
25 K	56.85
26.89 K	62.82
28.78 K	68.55
30 K	72.23
31.21 K	75.9
31.81 K	78.04
33.66 K	83.66
33.76 K	84.46
35 K	88.24
36.21 K	92.11
38.67 K	99.54
40 K	103.4
41.14 K	106.6
43.6 K	113.8
45 K	117.5
46.06 K	120.5
48.52 K	127.2
50 K	131.7
50.62 K	133.3
52.35 K	138.3
56.62 K	149.3
57.11 K	150.1
59.23 K	155.6
60 K	157.4
61.69 K	161.4
64.15 K	167.4
66.61 K	173.5
68.65 K	178.9
70 K	181.9
70.8 K	183.9
73.27 K	189.7
75.28 K	193.9
77.44 K	199
79.9 K	204.6
80 K	204.8
82.19 K	210
84.03 K	214.2
84.36 K	214.5
86.03 K	217.9
86.44 K	219.2
88.12 K	222.6
88.53 K	223.9
90 K	226.3
90.24 K	227.1
90.62 K	227.4
92.99 K	232
95.37 K	236.4
97.74 K	240.6
100 K	245.1
100.11 K	245.2
102.48 K	250
104.85 K	254
107.22 K	258.4
109.45 K	262.8
110 K	263.4
111.82 K	266.7
114.3 K	271.1
116.58 K	275.1
118.96 K	279
120 K	280.8
121.34 K	283
123.72 K	286.8
126.1 K	290.5
128.48 K	294.9
